What is called IC50 is the concentration that gives 50% inhibition.

Ten compounds from patent publication US20060223996A1, “IL-12 modulatory compounds” (Synta Pharmaceuticals Corp., priority 2004, published 2006) can be followed below.

The subject of experiment [1] is adjuvant arthritis (AA). The experiment in a line: Treatment of adjuvant arthritis in rats. It counts as in vivo, rat. Conditions: female Lewis rats, oral once a day for 7 days (day 7-14) after MTB induction, vs vehicle. How it is done: Treatment of adjuvant arthritis in rats: Adjuvant arthritis (AA) was induced in female Lewis rats by the intracutaneous injection (base of the tail) of 0.1 mL of a 10 mg/mL bacterial suspension made from ground, heat-killed Mycobacterium tuberculosis (MTB) H37Ra suspended in incomplete Freund's adjuvant. Rats were given Compound 1 or vehicle orally once a day for 7 days (day 7-14), starting day 7 after mycobacterium induction. The development of polyarthritis was monitored daily by macroscopic inspection and assignment of an arthritis index to each animal, during the critical period (days 10 to 25 post-immunization).
The intensity of polyarthritis was scored according to the following scheme: (a) Grade each paw from 0 to 3 based on erythema, swelling, and deformity of the joints: 0 for no erythema or swelling; 0.5 if swelling is detectable in at least one joint; 1 for mild swelling and erythema; 2 for swelling and erythema of both tarsus and carpus; and 3 for ankylosis and bony deformity. Maximum score for all 4 paws was thus 12. […]
Experiments with the AA model were repeated four times. […] The arthritis score used in this model was a reflection of the inflammatory state of the structures monitored and the results therefore show the ability of the test compound to provide relief for this aspect of the pathology.

Experiment [2] deals with IL-12. The experiment in a line: Human in vitro assay: inhibition of IL-12 production in IFNγ/LPS- or IFNγ/SAC-stimulated human PBMC or THP-1 cells (ELISA). It counts as cell-based. As to conditions: read-out: IC50 Range (representative in vitro IC50 data). In outline: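 PBMC (5×10^5 cells/well) primed with IFNγ 30 U/mL for 22 h then LPS 1 μg/mL, or IFNγ 100 U/mL then SAC 0.01%; THP-1 primed with IFNγ 100 U/mL for 22 h then SAC 0.025%, with compound in 0.25% DMSO. Supernatant IL-12 p70/p40 measured by sandwich ELISA after 18 h; IC50 derived; viability by MTS.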
A general note: ELISA stands for enzyme-linked immunosorbent assay.

For experiment [3], the system named is IL-12. Put plainly: Murine in vitro assay: IL-12 production in IFNγ/SAC-stimulated splenocytes of immunized Balb/c mice (ELISA). It counts as cell-based. Conditions: Mus musculus, Splenocyte; Balb/c splenocytes stimulated with IFNγ and SAC. On the procedure:
Murine In Vitro Assay. Balb/c mice (Taconic, Germantown, N.Y.) were immunized with Mycobacterium tuberculosis H37Ra (Difco, Detroit, Mich.). The splenocytes were harvested 5 days and prepared in RPMI medium supplemented with 10% FCS and antibiotics in a flat bottom 96-well plate with 1×10^6 cells/well. The splenocytes were then stimulated with a combination of IFNγ (60 ng/mL) and SAC (0.025%) (LPS (20 μg/mL can be used instead of SAC)) in the presence of a test compound. Cell-free supernatants were taken 24 h later for the measurement of cytokines. The preparation of compound and the assessment of cell viability were carried out as described above. […] Mouse IL-12 p70, IL-10, IL-1β, and TNFα are measured using ELISA kits from Endogen, according to the manufacturer's instructions.

`Cc1[nH]c2ccc(NC(=O)c3cc(OCCN4CCOCC4)nc(N4CCOCC4)n3)cc2c1C` [Compound 1, 2-Morpholin-4-yl-6-(2-morpholin-4-yl-ethoxy)-pyrimidine-4-carboxylic acid (2,3-dimethyl-1H-indol-5-yl)-amide]: the development of polyarthritis result in experiment [1] is recorded as “delayed the development of polyarthritis in a dose-dependent manner”. In addition, the “arthritic score (arthritic index)” value in experiment [1] (FIG. 1) is “reduced the arthritic score”. Further, the IC50 in experiment [2] was less than 1000 nM.

Take `Cc1[nH]c2ccc(NC(=O)c3cc(OCCN)nc(N4CCOCC4)n3)cc2c1C` [Compound 273, 6-(2-Amino-ethoxy)-2-morpholin-4-yl-pyrimidine-4-carboxylic acid (2,3-dimethyl-1H-indol-5-yl)-amide]: the IC50 in experiment [2] is less than 1000 nM; in experiment [3] it was 1250 nM.

Regarding `Cc1[nH]c2ccc(NC(=O)Nc3cc(OCCN4CCOCC4)nc(N4CCOCC4)n3)cc2c1C` [Compound 323, 1-(2,3-Dimethyl-1H-indol-5-yl)-3-[2-morpholin-4-yl-6-(2-morpholin-4-yl-ethoxy)-pyrimidin-4-yl]-urea], the IC50 in experiment [2] was less than 1000 nM.

For the compound `Nc1cccc(NC(=O)Nc2cc(OCCN3CCOCC3)nc(N3CCOCC3)n2)c1` [Compound 324, 1-(3-Amino-phenyl)-3-[2-morpholin-4-yl-6-(2-morpholin-4-yl-ethoxy)-pyrimidin-4-yl]-urea], the IC50 in experiment [2] was less than 1000 nM.

On to `O=C(Nc1ccc2[nH]c3c(c2c1)CCCC3)Nc1cc(OCCN2CCOCC2)nc(N2CCOCC2)n1` [Compound 325, 1-[2-Morpholin-4-yl-6-(2-morpholin-4-yl-ethoxy)-pyrimidin-4-yl]-3-(6,7,8,9-tetrahydro-5H-carbazol-3-yl)-urea], for which the IC50 in experiment [2] is less than 1000 nM.

Regarding `CN(CCO)c1cc(NC(=O)Nc2ccc3[nH]c4c(c3c2)CCCC4)nc(N2CCOCC2)n1` [Compound 326, 1-{6-[(2-Hydroxy-ethyl)-methyl-amino]-2-morpholin-4-yl-pyrimidin-4-yl}-3-(6,7,8,9-tetrahydro-5H-carbazol-3-yl)-urea], the IC50 in experiment [2] is less than 1000 nM.

As to `O=C(Nc1cccc(-n2cccn2)c1)Nc1cc(OCCN2CCOCC2)nc(N2CCOCC2)n1` [Compound 327, 1-[2-Morpholin-4-yl-6-(2-morpholin-4-yl-ethoxy)-pyrimidin-4-yl]-3-(3-pyrazol-1-yl-phenyl)-urea], in experiment [2], the concentration for half-maximal inhibition (IC50) was no less than 1000 nM.

In the case of `O=C(Nc1cccc(-n2ccnc2)c1)Nc1cc(OCCN2CCOCC2)nc(N2CCOCC2)n1` [Compound 328, 1-(3-Imidazol-1-yl-phenyl)-3-[2-morpholin-4-yl-6-(2-morpholin-4-yl-ethoxy)-pyrimidin-4-yl]-urea], in experiment [2], the IC50 was no less than 1000 nM.

Consider `Cc1cc(NC(=O)Nc2cc(OCCN3CCOCC3)nc(N3CCOCC3)n2)ccc1C(C)C` [Compound 329, 1-(4-Isopropyl-3-methyl-phenyl)-3-[2-morpholin-4-yl-6-(2-morpholin-4-yl-ethoxy)-pyrimidin-4-yl]-urea], for which, in experiment [2], the IC50 was less than 1000 nM.

On to `CC(C)c1cccc(NC(=O)Nc2cc(OCCN3CCOCC3)nc(N3CCOCC3)n2)c1` [Compound 330, 1-(3-Isopropyl-phenyl)-3-[2-morpholin-4-yl-6-(2-morpholin-4-yl-ethoxy)-pyrimidin-4-yl]-urea], for which, in experiment [2], the IC50 was less than 1000 nM.
